Laboratory results taken from publication PMC3894558, “Chemical signatures and new drug targets for gametocytocidal drug development” (Scientific Reports, 2014).
Read-outs that look alike come from different tables or passages of the source.

Test system: P. falciparum 3D7 gametocytes
Experiment: alamarBlue gametocyte viability assay, strain 3D7
Assay type: cell-based, Plasmodium falciparum
Conditions: for Max Resp: DMSO set at 0%, 100 nM epoxomicin set at -100%; call rule not given here
[1] = Malaria Box, stages III-V 3D7 gametocytes
[2] = Malaria Box, stages III-V 3D7 gametocytes, 11 concentrations, 1:3 dilution, read-out: IC50
[3] = Malaria Box, stages III-V 3D7 gametocytes, 11 concentrations, 1:3 dilution

| Compound | Max Resp (Malaria Box) | Curve Class [1] | IC50 [2] | IC50 [3] | IC50 (Plasmodium falciparum, 3D7, 3D7 gametocytes, stages III-V, high throughput viability assay, read-out: IC50 against gametocytes) |
| --- | --- | --- | --- | --- | --- |
| O=C(Nc1ccc(-c2nc3cc(NC(=O)c4ccc(Cl)cc4)ccc3[nH]2)cc1)c1ccc(Cl)cc1 [MMV006962] | -94% | -2.1 | 11.8 µM | – | – |
| OC(CNC1CCCCC1)Cn1c2ccccc2c2ccccc21 (stereo not shown) [MMV009063] | -99% | -1.1 | 2.35 µM | – | – |
| CCCCNc1nc(NC(C)(C)C)nc(NC(C)(C)C)n1 [MMV665864] | -93% | -2.1 | 13.2 µM | – | – |
| CCOc1cccc(C(=O)Nc2ccc(-c3nc4ccccc4[nH]3)cc2)c1 [MMV019202] | -23% | 4 | – | Inactive | – |
| COc1ccccc1CNC(=O)CCn1c(=O)[nH]c2ccsc2c1=O [MMV019066] | -11% | 4 | – | Inactive | – |
| COc1ccc(/C=C2/SC(=Nc3ccccc3)NC2=O)cc1 [MMV665836] | 13% | 4 | – | Inactive | – |
| CC1(c2ccccc2)Nc2ccccc2-c2nc3ccccc3n21 (stereo not shown) [MMV396715] | -84% | -2.1 | 16.6 µM | – | – |
| O=c1nc(C=Cc2ccc(Br)cc2)oc2ccccc12 [MMV666599] | 4% | 4 | – | Inactive | – |
| COc1ccccc1C(=O)ON=C(N)Cc1cccc2ccccc12 [MMV666686] | -50% | -2.2 | – | Inactive | – |
| CCN(CC)c1ccc(NC(=O)c2cccs2)cc1 [MMV009060] | 20% | 4 | – | Inactive | – |
| CCOc1c(Cl)cc(CNCC(O)c2ccccc2)cc1OC (stereo not shown) [MMV396632] | -76% | -2.2 | 9.35 µM | – | – |
| COc1ccccc1NC1=C(N2CCCCC2)C(=O)c2ccccc2C1=O [MMV085203] | -97% | -2.1 | 7.43 µM | – | – |
| Cc1cccc(Nc2nc(N)c3ccccc3n2)c1.Cl [MMV019110] | -65% | -2.2 | 18.7 µM | – | – |
| CN(N=O)C1=C(NC2CCCCC2)C(=O)c2ccccc2C1=O [MMV667492] | -59% | -1.2 | 2.35 µM | – | – |
| COc1ccccc1CNC(=O)C1c2ccccc2C(=O)N(CC(C)C)C1c1cccs1 (stereo not shown) [MMV000648] | -46% | -2.2 | – | Inactive | – |
| CCC(c1ccccc1)c1nn2c(-c3cccs3)nnc2s1 (stereo not shown) [MMV665876] | -47% | -2.2 | – | Inactive | – |
| COc1ccc(CCN2CCC(CN(C)Cc3cnn(-c4ccccc4)c3)CC2)cc1 [MMV666069] | -86% | -2.1 | 10.5 µM | – | – |
| CN(C)c1ccc(N2C(N)=NC(N)=NC2(C)C)cc1 [MMV667487] | -4% | 4 | – | Inactive | – |
| Cc1ccc2cc3c(N)c4c(C)ccc(C)c4nc3nc2c1 [MMV666079] | -81% | -2.1 | 16.6 µM | – | – |
| COc1ccc(CCN2C(=O)c3[nH]nc(-c4cc(Cl)c(C)cc4O)c3C2c2ccccc2F)cc1 (stereo not shown) [MMV396717] | -70% | -2.2 | 23.5 µM | – | – |

| Compound | Max Resp (Malaria Box) | Curve Class [1] | IC50 [2] | IC50 [3] | IC50 (Plasmodium falciparum, 3D7, 3D7 gametocytes, stages III-V, high throughput viability assay, read-out: IC50 against gametocytes) |
| --- | --- | --- | --- | --- | --- |
| CCOC(=O)c1cnc2ccc(OC)cc2c1Nc1ccc(N2CCN(C)CC2)cc1 [MMV000704] | -69% | -2.2 | 23.5 µM | – | – |
| Oc1ccc(C(=C(Cl)Cl)c2ccc(O)cc2)cc1 [MMV665949] | -40% | -1.2 | 9.35 µM | – | – |
| COc1ccc(C(O)(CCC(C)C)C(CN2CCOCC2)c2ccc(Cl)cc2)cc1.Cl (stereo not shown) [MMV000617] | -31% | -2.4 | – | Inactive | – |
| O=C(Nc1cccc(-c2nc3ccccc3[nH]2)c1)c1cccc(NC(=O)c2ccco2)c1 [MMV665883] | -25% | 4 | – | Inactive | – |
| CCN(Cc1ccccc1)C1CCN(Cc2cc(Br)ccc2O)CC1.O=C(O)C(=O)O [MMV019127] | -56% | -1.2 | 0.935 µM | – | – |
| Cc1ccc(C2CC(C(F)(F)F)n3nc(C(=O)N4CCN(C(c5ccccc5)c5ccccc5)CC4)cc3N2)cc1 (stereo not shown) [MMV000699] | -70% | -2.2 | 29.6 µM | – | – |
| Cc1ccc(S(=O)(=O)c2c(COC(=O)c3cccc(C)c3)c(-c3ccccc3)nn2C)cc1 [MMV665936] | 5% | 4 | – | Inactive | – |
| CCN(CC)CCn1c(=N)n(CC(O)c2ccc(Cl)c(Cl)c2)c2ccccc21.Cl (stereo not shown) [MMV000248] | -99% | -1.1 | 1.48 µM | – | – |
| c1ccc2cc3c(Nc4ccc(N5CCOCC5)cc4)ccnc3cc2c1 [MMV006861] | -63% | -2.2 | 18.7 µM | – | – |
| Cc1cc(Nc2ccc(OCc3ccccc3)cc2)nc2cc(O)ccc12 [MMV007181] | -30% | -1.2 | 0.59 µM | – | – |
| O=[N+]([O-])c1ccc(C=NNc2nc3ccccc3[nH]2)cc1 [MMV666607] | -57% | -2.2 | 29.6 µM | – | – |
| COc1ccc(-c2nc(NC(=O)CS(=O)(=O)c3ccc(F)cc3)sc2C)cc1 [MMV665915] | -44% | -2.2 | – | Inactive | – |
| O=C(O)C(=O)O.Oc1ccccc1CN1CCN(C(c2ccccc2)c2ccccc2)CC1 [MMV011795] | -53% | -2.2 | 5.9 µM | – | – |
| O=C(O)C(=O)O.Oc1ccc(Br)cc1CN1CCN(Cc2cccc(F)c2)CC1 [MMV000356] | -72% | -1.2 | 2.64 µM | – | – |
| O=C(CCc1ccccc1)c1ccccc1OCC(O)CN1CCCCC1 (stereo not shown) [MMV009015] | -74% | -2.2 | 7.43 µM | – | – |
| CC(O)(c1ccc(Cl)cc1)C(CN1CCCCC1)c1ccccc1.Cl (stereo not shown) [MMV000620] | -78% | -2.2 | 9.35 µM | – | – |
| COc1ccc(CCNC(=O)c2cc(S(=O)(=O)N3CC(C)CC(C)C3)ccc2Sc2ccc(F)cc2)cc1OC (stereo not shown) [MMV007557] | -72% | -2.2 | 9.35 µM | – | – |
| N#Cc1nc(Cc2cccc3ccccc23)oc1N1CCN(C(c2ccccc2)c2ccccc2)CC1 [MMV396726] | -1% | 4 | – | Inactive | – |
| COc1ccc2c(c1)OC(O)(C(F)(F)C(F)(F)F)CC2=O (stereo not shown) [MMV007839] | -23% | 4 | – | Inactive | – |
| CCCCOC(=O)c1ccc(Nc2cc(C)nc3ccc(OC)cc23)cc1 [MMV665797] | -47% | -2.2 | – | Inactive | – |

| Compound | Max Resp (Malaria Box) | Curve Class [1] | IC50 [2] | IC50 [3] | IC50 (Plasmodium falciparum, 3D7, 3D7 gametocytes, stages III-V, high throughput viability assay, read-out: IC50 against gametocytes) |
| --- | --- | --- | --- | --- | --- |
| COc1ccccc1N1CCN(C(CNS(=O)(=O)c2ccc(Cl)cc2)c2cccnc2)CC1 (stereo not shown) [MMV665914] | -63% | -2.2 | 29.6 µM | – | – |
| O=C(CCl)NCCOc1ccc(Cl)cc1Cl [MMV665927] | -88% | -2.1 | 16.6 µM | – | – |
| CN1c2ccccc2N(C)C1c1ccc2c(c1)OCO2 [MMV666009] | -36% | -2.4 | – | Inactive | – |
| COc1ccc(-c2c(C)nn3c(N)c(C#N)cnc23)cc1OC [MMV396797] | -90% | -1.1 | 6.62 µM | – | – |
| FC(F)(F)c1ccc(Nc2nnnc3ccccc23)cc1 [MMV665935] | 25% | 4 | – | Inactive | – |
| Cn1c(C(=O)c2cccc3ccccc23)nc2ccccc21 [MMV665824] | -53% | -2.4 | – | Inactive | – |
| CCOc1cc(Cl)c(C(C)NC(=O)c2ccccc2)cc1OCC (stereo not shown) [MMV665800] | -48% | -2.2 | – | Inactive | – |
| CN(C)CCNc1cc(-c2ccccc2)nc2ccccc12 [MMV006704] | -79% | -2.2 | 29.6 µM | – | – |
| Nc1ccc(-c2nc3cc(Oc4ccc(Oc5ccc6[nH]c(-c7ccc(N)cc7)nc6c5)cc4)ccc3[nH]2)cc1 [MMV011895] | -78% | -2.2 | 18.7 µM | – | – |
| O=C(Nc1ccccc1O)c1ccc(Oc2cccc(C(=O)Nc3ccccc3O)c2)cc1 [MMV665888] | -76% | -2.2 | 14.8 µM | – | – |
| O=C(CCc1ccco1)NC1CCN(CC2(c3ccc(Cl)cc3)CCC2)CC1 [MMV666108] | -51% | -2.2 | – | Inactive | – |
| c1ccc(Cn2c(N=Nc3c(Nc4ccccc4)ccc4ccccc34)nc3ccccc32)cc1 [MMV666023] | -89% | -2.1 | 10.5 µM | – | – |
| COc1ccc(C(=O)Nc2ccc(Cl)cc2C(=O)Nc2ccncc2)cc1 [MMV665799] | -28% | 4 | – | Inactive | – |
| CCOC(=O)C1=C(C)N=c2sc(=Cc3ccccc3O)c(=O)n2C1c1ccc(OC)c2ccccc12 (stereo not shown) [MMV666604] | -68% | -1.2 | 7.43 µM | – | – |
| CC(C)CNC(=O)c1c(N)n(CCc2ccccc2F)c2nc3ccccc3nc12 [MMV396744] | -70% | -1.2 | 3.32 µM | – | – |
| CCC(=O)N1CCN(c2ccc(-n3c(=O)ccc4cnc5ccc(-c6ccc(N)nc6)cc5c43)cc2C(F)(F)F)CC1 [WWH030] | – | – | – | – | 0.009 µM |
| Cc1ccccc1OCCSc1nc2ccc(NC(=O)c3cccs3)cc2s1 [MMV007396] | 23% | 4 | – | Inactive | – |
| CN(C)CCCNCc1ccc(-c2ccc(F)c(Cl)c2)o1.Cl [MMV020505] | -98% | -1.1 | 3.32 µM | – | – |
